# From PubChem BioAssay AID1963868 (Molecular Pharmacology Branch, DTP, NCI, 2024)
# Tested on: KRAS PDC tumor spheroids (HUVEC+MSC), viability
# Test: Anticancer human tumor 254851-301-R-J1-PDC patient-derived colon carcinoma cell line growth inhibition [KRAS2]
# Conditions: for IC50: curve of first compound; for viability, T/C: stronger effect = lower value
# Excerpt: Multicellular complex tumor spheroid response to RAS pathway inhibitors in combination with a targeted agents in patient-derived cell lines with oncogenic KRAS variants from multiple cancer types
# A high-throughput screen of multi-cell type tumor spheroids was designed to identify active combinations of targeted small molecules and KRAS pathway inhibitors. Complex spheroids include a stromal component modeled by human endothelial cells (HUVEC) and fibroblasts modeled by human mesenchymal stem cells (MSCs). The concentration ranges selected for each drug and investigational agent were based upon clinically achievable concentrations if the clinical Cmax of the agent was known.
# Compounds. The drugs and investigational agents: BI-3406 (NSC825286), BAY-293 (NSC824723), batoprotafib (TNO155; NSC825523), sotorasib (AMG 510; NSC818433), MRTX1257 (NSC819558), elimusertib (BAY 1895344; NSC800525), molibresib (GSK525762; NSC774829), temuterkib (LY3214996; NSC803410), venetoclax (NSC766270), alisertib (NSC759677), olaparib (NSC753686), talazoparib (NSC767125), erdafitinib (NSC781556), ipatasertib (NSC767898), cabozantinib (NSC761068), nintedanib (NSC756659), abemaciclib (NSC768073), docetaxel (NSC628503), trametinib (NSC758246), and sapanisertib (NSC764658) were obtained from the National Cancer Institute (NCI) Developmental Therapeutics Program Chemical Repository. The FDA-approved anticancer drug set is available from the Developmental Therapeutics Program. […] The stock solutions were prepared in dimethyl sulfoxide (DMSO, Sigma-Aldrich, St. Louis, MO, cat. D2650) at 800-fold the tested concentration and stored at -70 degrees C prior to their use. All drugs and investigational agents were tested over a range starting from a high concentration at or near the clinical Cmax and decreasing in half-log increments. If the clinical Cmax for an agent had not been determined, the highest concentration tested was 10 microM.
# Cell Culture. All cells were maintained in an incubator at 37 degrees C and 5% CO2 with 95% humidity. The PDC lines were cultured according to standard operating procedures established by the NCI PDMR (https://pdmr.cancer.gov/sops/default.htm). Briefly, all PDCs were thawed and cultured in Matrigel-coated flasks prepared with a working solution of 1X Ham's F-12 nutrient mix, without supplementation (Invitrogen, Waltham, MA, cat. 11765054), 100 U/mL penicillin-streptomycin (Invitrogen, cat. 15140122), and 2.5% Matrigel (Corning Inc., Corning, NY, cat. 354248) for the first three passages. All PDCs were cultured in complete DMEM/F-12 media containing advanced DMEM/F-12 (Invitrogen, cat. 12634028), 4.9% defined fetal bovine serum, heat inactivated (HyClone Laboratories Inc., Logan, UT, cat. SH30070.03HI), 389 ng/mL hydrocortisone (Sigma-Aldrich, cat. H4001), 9.7 ng/mL human EGF recombinant protein (Invitrogen, cat. PHG0313), 23.4 microg/mL adenine (Sigma-Aldrich, cat. A2786), 97.3 U/mL penicillin-streptomycin (Invitrogen, cat. 15140122), 1.9 mM L-glutamine (Invitrogen, cat. 25030081), and 9.7 microM Y-27632 dihydrochloride (Tocris Bioscience, Bristol, United Kingdom, cat. 1254). The PDCs were cultured in complete DMEM/F12 media without 9.7 microM Y-27632 dihydrochloride for at least two passages prior to the screen. The established cell line HOP-62 was cultured in RPMI 1640 medium, HEPES (Invitrogen, cat. 22400105) with 10% defined fetal bovine serum (HyClone Laboratories Inc., cat. SH30070.03) and 2 mM L-glutamine (Invitrogen, cat. 25030081). The pooled donor HUVEC were cultured in endothelial cell growth medium 2 (PromoCell, Heidelberg, Germany, cat. C-22011) and the hMSC were cultured in mesenchymal stem cell growth medium 2 (PromoCell, cat. C-28009). For all experiments, HUVEC and hMSC were used at passages </=5, while the malignant cell lines were used at passages </=15. […]
# [1] = second compound 0.1 µM, first compound 0.0316 µM
# [2] = second compound 0.1 µM, first compound 0.1 µM
# [3] = second compound 0.316 µM, first compound 0.0316 µM
# [4] = second compound 0.316 µM, first compound 0.1 µM
# [5] = second compound 1 µM, first compound 0.0316 µM
# [6] = second compound 1 µM, first compound 0.1 µM
# [7] = second compound 3.16 µM, first compound 0.0316 µM
# [8] = second compound 3.16 µM, first compound 0.1 µM
# 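Further: spheroids exposed to compounds for seven days before readout.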
# 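Wherever viability, T/C is given: 100% = DMSO vehicle control luminescence of the spheroids.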
compound,measurement,setting,value
CN(C)C/C=C/C(=O)Nc1cc2c(Nc3ccc(F)c(Cl)c3)ncnc2cc1O[C@H]1CCOC1 + C=CC(=O)N1CCN(c2nc(OCC3CCCN3C)nc3c2CCN(c2cccc4cccc(C)c24)C3)CC1CC#N,IC50,second compound 0.0316 µM,> 0.1 µM
same,IC50,second compound 0.1 µM,> 0.1 µM
same,IC50,second compound 0.316 µM,> 0.1 µM
same,IC50,second compound 1 µM,> 0.1 µM
same,IC50,second compound 3.16 µM,> 0.1 µM
same,"viability, T/C","second compound 0.0316 µM, first compound 0.000316 µM",97.2%
same,"viability, T/C","second compound 0.0316 µM, first compound 0.001 µM",99.7%
same,"viability, T/C","second compound 0.0316 µM, first compound 0.00316 µM",94.7%
same,"viability, T/C","second compound 0.0316 µM, first compound 0.01 µM",96.7%
same,"viability, T/C","second compound 0.0316 µM, first compound 0.0316 µM",97.9%
same,"viability, T/C","second compound 0.0316 µM, first compound 0.1 µM",78.7%
same,"viability, T/C","second compound 0.1 µM, first compound 0.000316 µM",105%
same,"viability, T/C","second compound 0.1 µM, first compound 0.001 µM",101%
same,"viability, T/C","second compound 0.1 µM, first compound 0.00316 µM",88.5%
same,"viability, T/C","second compound 0.1 µM, first compound 0.01 µM",92.6%
same,"viability, T/C",[1],97.7%
same,"viability, T/C",[2],69.7%
same,"viability, T/C","second compound 0.316 µM, first compound 0.000316 µM",101%
same,"viability, T/C","second compound 0.316 µM, first compound 0.001 µM",97.8%
same,"viability, T/C","second compound 0.316 µM, first compound 0.00316 µM",92.6%
same,"viability, T/C","second compound 0.316 µM, first compound 0.01 µM",75%
same,"viability, T/C",[3],89.3%
same,"viability, T/C",[4],74.5%
same,"viability, T/C","second compound 1 µM, first compound 0.000316 µM",104%
same,"viability, T/C","second compound 1 µM, first compound 0.001 µM",97.9%
same,"viability, T/C","second compound 1 µM, first compound 0.00316 µM",91.4%
same,"viability, T/C","second compound 1 µM, first compound 0.01 µM",95.9%
same,"viability, T/C",[5],96.7%
same,"viability, T/C",[6],82.3%
same,"viability, T/C","second compound 3.16 µM, first compound 0.000316 µM",67.5%
same,"viability, T/C","second compound 3.16 µM, first compound 0.001 µM",61.5%
same,"viability, T/C","second compound 3.16 µM, first compound 0.00316 µM",51.8%
same,"viability, T/C","second compound 3.16 µM, first compound 0.01 µM",54.6%
same,"viability, T/C",[7],62.6%
same,"viability, T/C",[8],52.1%
COc1cc2nccc(Oc3ccc(NC(=O)C4(C(=O)Nc5ccc(F)cc5)CC4)cc3)c2cc1OC + COc1cc2nc(C)nc(NC(C)c3cc(N)cc(C(F)(F)F)c3)c2cc1OC1CCOC1,IC50,second compound 0.1 µM,> 10 µM
same,IC50,second compound 0.316 µM,> 10 µM
same,IC50,second compound 1 µM,> 10 µM
same,IC50,second compound 3.16 µM,> 10 µM
same,IC50,second compound 10 µM,2.67 µM
same,"viability, T/C",[1],101%
same,"viability, T/C",[2],109%
same,"viability, T/C","second compound 0.1 µM, first compound 0.316 µM",114%
same,"viability, T/C","second compound 0.1 µM, first compound 1 µM",99%
same,"viability, T/C","second compound 0.1 µM, first compound 3.16 µM",58%
same,"viability, T/C","second compound 0.1 µM, first compound 10 µM",96.4%
same,"viability, T/C",[3],85.9%
same,"viability, T/C",[4],108%
same,"viability, T/C","second compound 0.316 µM, first compound 0.316 µM",122%
same,"viability, T/C","second compound 0.316 µM, first compound 1 µM",90%
same,"viability, T/C","second compound 0.316 µM, first compound 3.16 µM",66.2%
same,"viability, T/C","second compound 0.316 µM, first compound 10 µM",98.8%
same,"viability, T/C",[5],103%
same,"viability, T/C",[6],106%
same,"viability, T/C","second compound 1 µM, first compound 0.316 µM",104%
same,"viability, T/C","second compound 1 µM, first compound 1 µM",90%
same,"viability, T/C","second compound 1 µM, first compound 3.16 µM",42.1%
same,"viability, T/C","second compound 1 µM, first compound 10 µM",84.4%
same,"viability, T/C",[7],103%
same,"viability, T/C",[8],104%
same,"viability, T/C","second compound 3.16 µM, first compound 0.316 µM",87.7%
same,"viability, T/C","second compound 3.16 µM, first compound 1 µM",80.6%
same,"viability, T/C","second compound 3.16 µM, first compound 3.16 µM",20.9%
same,"viability, T/C","second compound 3.16 µM, first compound 10 µM",92.7%
same,"viability, T/C","second compound 10 µM, first compound 0.0316 µM",64.5%
same,"viability, T/C","second compound 10 µM, first compound 0.1 µM",103%
same,"viability, T/C","second compound 10 µM, first compound 0.316 µM",90%
same,"viability, T/C","second compound 10 µM, first compound 1 µM",67.2%
same,"viability, T/C","second compound 10 µM, first compound 3.16 µM",4%
same,"viability, T/C","second compound 10 µM, first compound 10 µM",90.1%
